Patent publication US20260176275A1, “VINYLPHOSPHONIC ACID-MODIFIED MRNA CAP ANALOG, METHOD FOR PREPARING SAME, AND USE THEREOF” (Jiangsu Synthgene Biotechnology Co., Ltd., priority 2022, published 2026)

Experiments:
[1] = molecular target: T1, T7 RNA polymerase (Escherichia phage T7, UniProt P00573); assay: mRNA in-vitro transcription yield with cap analog (T7 IVT, Nanodrop One quantification); type: biochemical; conditions: for Yield: mRNA from 20 μL IVT system, 1 μl 100 mM cap analog, 1 μg template, 37° C. 2 h; for in-vitro transcription yield compared with Comparative Example 1 (in words): text summary of Table 4
T1 sequence (P00573 whole entry): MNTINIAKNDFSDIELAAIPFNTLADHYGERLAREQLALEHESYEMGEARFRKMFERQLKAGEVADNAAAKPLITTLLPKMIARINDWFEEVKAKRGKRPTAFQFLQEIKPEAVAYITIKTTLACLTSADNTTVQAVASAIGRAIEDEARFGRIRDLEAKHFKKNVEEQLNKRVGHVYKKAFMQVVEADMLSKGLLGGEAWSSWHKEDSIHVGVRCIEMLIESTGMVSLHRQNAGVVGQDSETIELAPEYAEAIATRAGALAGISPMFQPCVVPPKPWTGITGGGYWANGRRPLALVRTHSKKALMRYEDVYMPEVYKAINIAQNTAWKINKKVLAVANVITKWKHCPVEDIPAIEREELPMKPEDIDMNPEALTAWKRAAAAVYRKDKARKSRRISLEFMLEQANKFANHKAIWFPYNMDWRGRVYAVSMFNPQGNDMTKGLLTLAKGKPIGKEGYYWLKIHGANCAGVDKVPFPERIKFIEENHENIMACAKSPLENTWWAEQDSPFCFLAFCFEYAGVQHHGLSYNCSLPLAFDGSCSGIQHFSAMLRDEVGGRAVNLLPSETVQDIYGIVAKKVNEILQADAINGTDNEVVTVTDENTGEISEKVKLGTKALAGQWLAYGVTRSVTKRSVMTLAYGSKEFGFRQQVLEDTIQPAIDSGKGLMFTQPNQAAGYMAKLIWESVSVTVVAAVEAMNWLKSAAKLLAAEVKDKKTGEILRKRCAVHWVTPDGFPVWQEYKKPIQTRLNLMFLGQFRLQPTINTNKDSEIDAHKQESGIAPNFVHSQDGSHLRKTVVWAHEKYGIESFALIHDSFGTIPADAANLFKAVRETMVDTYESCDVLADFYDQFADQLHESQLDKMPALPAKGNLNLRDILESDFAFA
Procedure: (§1) In-vitro synthesis of mRNA cap analogs modified with vinylphosphonic acid: Firstly, a plasmid was linearized with NotI and digested at […] overnight. A DNA template was extracted. mRNAs were synthesized by in-vitro transcription using the vinylphosphonic acid-modified mRNA cap analogs of Examples 1-7 and compounds 10-13, 16, 17, 25, 31 and 34, and the cap analog of Comparative Example 1 as cap structures, respectively.
(§2) Note: During the experiment, the volume of the materials required for the system was calculated firstly, and then sample loading was performed. Firstly, sterile enzyme-free water was added into the system, and then 10× buffer, NTPs, and the cap analog were sequentially added. The mixture was uniformly mixed and then gently centrifuged, followed by addition of the nuclease inhibitor, the inorganic pyrophosphatase, the T7 RNA polymerase, and the linearized DNA template. The mixture was well mixed, then gently centrifuged, and incubated at 37° C. After 2 h, DNase I (1 U) was added, and the mixture was incubated at 37° C. for another 30 min to remove the DNA template. RNA purification was then performed (usually using the magnetic bead purification method). The purified mRNA was dissolved in sterile enzyme-free water, and then quantitative detection was performed by using Nanodrop One.

[2] = molecular target: T1, T7 RNA polymerase; assay: IVT capping rate of mRNA by LC-MS after RNase H cleavage; type: biochemical; conditions: for Capping rate: LC-MS of mRNA transcribed with the cap analog; for capping efficiency compared with Comparative Example 1 (in words): text summary of Table 4
Procedure: as §1, §2
Liquid chromatography-mass spectrometry (LC-MS) was used to detect the IVT capping rates of mRNAs with different starting cap analogs. Firstly, a labeled (usually biotin-labeled) DNA probe matched with the starting base of mRNA as the transcript product was required to be designed, and streptavidin-labeled magnetic beads were washed, and then incubated with the synthesized DNA probe, mRNA and 10× RNase H reaction buffer with slowly mixing at room temperature for 30 min. 20 L of RNase H (5 U/μL) was then added, and the mixture was incubated at 37° C. for 3 h, with uniform mixing every half hour. After the incubation was completed, the magnetic beads were cleaned, and then 100 μL of 75% methanol heated to 80° C. was added to the cleaned magnetic beads. The mixture was heated to 80° C. on a heating plate, held for 3 min, and then placed on a magnetic rack. The supernatant was pipetted and dried at room temperature for 45 min to 10 Lby using an evaporation centrifuge. The sample was then resuspended in 50 μL of 100 μM EDTA/1% MeOH for LC-MS analysis to determine the capping of RNA in the transcription reaction. Due to the significant difference in molecular weight between capped and uncapped bases, the capping rates of mRNA transcription initiated with different cap analogs can be determined by using the difference in molecular weight.

[3] = molecular target: eukaryotic initiation factor (elF4E) (Homo sapiens, UniProt P06730); assay: Assay of binding ability to eukaryotic initiation factor (elF4E), Biacore T100; conditions: cap analog to elF4E protein; running buffer pH 6.0 or 7.4; read-out: Binding constant (converted)
Chain of eukaryotic initiation factor (elF4E) (P06730 whole entry): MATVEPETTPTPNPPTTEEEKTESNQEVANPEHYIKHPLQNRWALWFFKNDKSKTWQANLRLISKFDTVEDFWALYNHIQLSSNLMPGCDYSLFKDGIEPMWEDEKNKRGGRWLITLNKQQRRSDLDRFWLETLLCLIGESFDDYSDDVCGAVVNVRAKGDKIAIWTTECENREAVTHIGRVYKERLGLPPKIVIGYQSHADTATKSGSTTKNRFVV
Procedure: Test method: Firstly, experimental samples, including the cap analog samples of Examples 1-7, compounds 10-13, 16, 17, 25, 31 and 34, and Comparative Example 1, were diluted with a running buffer (50 mM phosphate, 100 mM sodium chloride, and 0.01% vol/vol Tween 20, pH 6.0 or 7.4). The sample injection time was […], the sample injection flow rate was 20 L/min, and the dissociation time was […]. The residual samples were eluted with a regeneration buffer (10 mM HEPES, 150 mM NaCl, and 0.010% vol/vol Tween 20, pH 7.4) for 30 s at a flow rate of 30 μL/min. Finally, through analysis by Biacore T100 evaluation software (version 2.0.2), sensorgrams were generated and the binding constants were calculated.

Row | SMILES | Yield [1] [µg] | Capping rate [2] [%] | Kd [3] [nM] | in-vitro transcription yield compared with Comparative Example 1 (in words) [1] | capping efficiency compared with Comparative Example 1 (in words) [2]
1 | COCCOC1C(O)[C@H](n2c[n+](C)c3c(=O)[nH]c(N)nc32)O[C@@H]1/C=C/P(=O)(O)OP(=O)(O)OP(=O)(O)OC[C@H]1O[C@@H](n2cnc3c(N)ncnc32)C(OC)C1OP(=O)(O)OC[C@H]1O[C@@H](n2cnc3c(=O)[nH]c(N)nc32)C(O)C1O (stereo partly drawn) [Compound 10] | 124 | 96.4 | 218 | – | –
2 | COC1C(OP(=O)(O)OC[C@H]2O[C@@H](n3cnc4c(=O)[nH]c(N)nc43)C(O)C2O)[C@@H](/C=C/P(=O)(O)OP(=O)(O)OP(=O)(O)OC[C@H]2O[C@@H](n3c[n+](C)c4c(=O)[nH]c(N)nc43)C(O)C2O)O[C@H]1n1cnc2c(N)ncnc21 (stereo partly drawn) [Example 3] | 122 | 95.3 | 240 | – | –
3 | COC1[C@@H](OP(=O)(O)/C=C/[C@H]2O[C@@H](n3cnc4c(=O)[nH]c(N)nc43)C(O)[C@H]2O)[C@@H](/C=C\P(=O)(O)OP(=O)(O)OP(=O)(O)OC[C@H]2O[C@@H](n3c[n+](C)c4c(=O)[nH]c(N)nc43)[C@@H](O)C2O)O[C@H]1n1cnc2c(N)ncnc21 (stereo partly drawn) [Example 6] | 96 | 87.3 | 362 | significantly lower than those of Comparative Example 1 | significantly lower than those of Comparative Example 1
4 | COC1C(OP(=O)(O)OC[C@H]2O[C@@H](n3cnc4c(=O)[nH]c(N)nc43)C(O)C2O)[C@@H](/C=C\P(=O)(O)OP(=O)(O)OP(=O)(O)OC[C@H]2O[C@@H](n3c[n+](C)c4c(=O)[nH]c(N)nc43)C(O)C2CNC(C)=O)O[C@H]1n1cnc2c(N)ncnc21 (stereo partly drawn) [Compound 25] | 120 | 96.1 | 224 | – | –
5 | COC1[C@@H](OP(=O)(O)OC[C@H]2O[C@@H](n3cnc4c(=O)[nH]c(N)nc43)C(O)[C@H]2O)[C@@H](/C=C\P(=O)(O)OP(=O)(O)OP(=O)(O)/C=C\[C@H]2O[C@@H](n3c[n+](C)c4c(=O)[nH]c(N)nc43)[C@@H](O)C2O)O[C@H]1n1cnc2c(N)ncnc21 (stereo partly drawn) [Example 5] | 102 | 90.2 | 395 | significantly lower than those of Comparative Example 1 | significantly lower than those of Comparative Example 1
6 | COC1C(OP(=O)(O)OC[C@H]2O[C@@H](n3cnc4c(=O)[nH]c(N)nc43)C(O)C2O)[C@@H](COP(=O)(O)OP(=O)(O)OP(=O)(O)/C=C/[C@H]2O[C@@H](n3c[n+](C)c4c(=O)[nH]c(N)nc43)C(O)C2CN(C)C(C)=O)O[C@H]1n1cnc2c(N)ncnc21 (stereo partly drawn) [Compound 31] | 115 | 95.7 | 239 | – | –
7 | CCCC(=O)NCC1C(O)[C@H](n2c[n+](C)c3c(=O)[nH]c(N)nc32)O[C@@H]1/C=C/P(=O)(O)OP(=O)(O)OP(=O)(O)OC[C@H]1O[C@@H](n2cnc3c(N)ncnc32)C(OC)C1OP(=O)(O)OC[C@H]1O[C@@H](n2cnc3c(=O)[nH]c(N)nc32)C(O)C1O (stereo partly drawn) [Compound 34] | 117 | 95.9 | 236 | – | –
8 | COC1C(OP(=O)(O)OC[C@H]2O[C@@H](n3cnc4c(=O)[nH]c(N)nc43)C(O)C2O)[C@@H](COP(=O)(O)OP(=O)(O)OP(=O)(O)/C=C/[C@H]2O[C@@H](n3c[n+](C)c4c(=O)[nH]c(N)nc43)CC2OC)O[C@H]1n1cnc2c(N)ncnc21 (stereo partly drawn) [Compound 13] | 112 | 95.4 | 265 | – | –
9 | COCC1C(O)[C@H](n2c[n+](C)c3c(=O)[nH]c(N)nc32)O[C@@H]1/C=C/P(=O)(O)OP(=O)(O)OP(=O)(O)OC[C@H]1O[C@@H](n2cnc3c(N)ncnc32)C(OC)C1OP(=O)(O)OC[C@H]1O[C@@H](n2cnc3c(=O)[nH]c(N)nc32)C(O)C1O (stereo partly drawn) [Compound 11] | 116 | 95.7 | 246 | – | –
10 | COC1C(OP(=O)(O)OC[C@H]2O[C@@H](n3cnc4c(=O)[nH]c(N)nc43)C(O)C2O)[C@@H](COP(=O)(O)OP(=O)(O)OP(=O)(O)/C=C/[C@H]2O[C@@H](n3c[n+](C)c4c(=O)[nH]c(N)nc43)C(O)C2O)O[C@H]1n1cnc2c(N)ncnc21 (stereo partly drawn) [Example 2] | 125 | 96.3 | 216 | – | –
11 | COC1C(OP(=O)(O)OC[C@H]2O[C@@H](n3ccc(=O)[nH]c3=O)C(O)C2O)[C@@H](COP(=O)(O)OP(=O)(O)OP(=O)(O)/C=C/[C@H]2O[C@@H](n3c[n+](C)c4c(=O)[nH]c(N)nc43)C(O)C2CNC(C)=O)O[C@H]1n1cnc2c(N)ncnc21 (stereo partly drawn) [Compound 17] | 122 | 96.2 | 222 | – | –
12 | COC1C(OP(=O)(O)OC[C@H]2O[C@@H](n3cnc4c(=O)[nH]c(N)nc43)C(O)C2O)[C@@H](COP(=O)(O)OP(=O)(O)OP(=O)(O)/C=C/[C@H]2O[C@@H](n3c[n+](C)c4c(=O)[nH]c(N)nc43)C(F)C2O)O[C@H]1n1cnc2c(N)ncnc21 (stereo partly drawn) [Compound 16] | 114 | 95.8 | 269 | – | –
13 | COC1C(OP(=O)(O)OC[C@H]2O[C@@H](n3cnc4c(=O)[nH]c(N)nc43)C(O)C2O)[C@@H](COP(=O)(O)OP(=O)(O)OP(=O)(O)/C=C/[C@H]2O[C@@H](n3c[n+](C)c4c(=O)[nH]c(N)nc43)C(O)C2CNC(C)=O)O[C@H]1n1cnc2c(N)ncnc21 (stereo partly drawn) [Compound 12] | 123 | 96.6 | 214 | – | –
14 | COC1C(OP(=O)(O)/C=C/[C@H]2O[C@@H](n3cnc4c(=O)[nH]c(N)nc43)C(O)C2O)[C@@H](COP(=O)(O)OP(=O)(O)OP(=O)(O)OC[C@H]2O[C@@H](n3c[n+](C)c4c(=O)[nH]c(N)nc43)C(O)C2O)O[C@H]1n1cnc2c(N)ncnc21 (stereo partly drawn) [Example 1] | 117 | 96.4 | 313 | – | –
15 | COC1[C@@H](OP(=O)(O)/C=C/[C@H]2O[C@@H](n3cnc4c(=O)[nH]c(N)nc43)C(O)[C@H]2O)[C@@H](COP(=O)(O)OP(=O)(O)OP(=O)(O)/C=C\[C@H]2O[C@@H](n3c[n+](C)c4c(=O)[nH]c(N)nc43)[C@@H](O)C2O)O[C@H]1n1cnc2c(N)ncnc21 (stereo partly drawn) [Example 4] | 106 | 94.5 | 377 | significantly lower than those of Comparative Example 1 | significantly lower than those of Comparative Example 1
